Laboratory results from patent US20230339919A1, “BENZO OXYGEN-CONTAINING HETEROCYCLIC COMPOUNDS AND MEDICAL APPLICATION THEREOF” (AB PHARMA LTD., priority 2020, published 2023).
Read-outs that look alike come from different tables or passages of the source.

Tests used:
GPR40 = target: T1, GPR40 (Homo sapiens, UniProt O14842); assay: GPR40 agonist activity, FLIPR calcium assay in CHO-K1/GPR40 cells; format: cell-based
T1 construct: expressed in transfected cells; host or cells: CHO-K1
Procedure: Inoculate CHO-K1/GPR40 cells in 384-well plates at a density of 10,000 cells/well. Cells were incubated at 37° C. for 24 hours in a 5% CO2 incubator. After the experiment, discard the cell culture medium, quickly add […] of 1× FLIPR® Calcium 6 dye containing 2.5 mM/Probenecid to each well and incubate at 37° C. for 2 hours protected from light. For the determination, different concentrations of drug ([…]) were added to the wells and the fluorescence values were read. The fluorescence excitation wavelength was 494 nm and emission wavelength was 516 nm. FLIPR instrument data, EC50 was derived from the formula Y=Bottom+(Top−Bottom)/(1+(EC50/X)^HillSlope).

[1] = Acute Toxicity Study (MTD) by gavage in healthy mice; format: in vivo; conditions: mouse, in vivo, po, 600 mg/kg
healthy mice = assay: as above; format: in vivo; conditions: mouse, in vivo, 600 mg/kg, 5 days
hERG = hERG (Homo sapiens, UniProt Q12809); assay: hERG assay
[2] = target: BSEP bile salt transporter (Homo sapiens, UniProt O95342); assay: BSEP (Bile Salt Export Pump) assay, taurocholic acid uptake by BSEP vesicles, LC/MS/MS; format: in vitro ADME
Excerpt: In this experiment, we performed a preliminary study on the inhibition of the uptake of the substrate taurocholic acid (TCA) by the BSEP bile salt transporter by LC/MS/MS. The BSEP protein microvesicles with reverse uptake ability were obtained by transfecting Hi5 cells with the BSEP gene, which is capable of TCA uptake and uptake of taurocholic acid. The principle of this experiment is to perform substrate uptake by BSEP protein microcapsules in the presence of energy ATP, the substrate TCA and the candidate compound to be tested, after a certain transit time, the energy, substrate and candidate compound were completely washed out of the microvesicle, and the absorbed substrate TCA was released by lysis of the microvesicle. […] The starting concentration of the sample was 100 mM, diluted in 2-fold gradient with Bravo apparatus, with 11 concentration gradients; the lowest point concentration was 97.65 μM. • 3. Control compound (Glyburide) starting at 20 mM, diluted in 2-fold gradient with Bravo instrument, with 11 concentration gradients; the lowest point concentration was 19.53 μM. • 4. 300 nl of compound was transferred to the middle plate using the ECHO autosampler. • 5. Positive control (HPE) wells and negative control (ZPE) wells were also transferred 300 nl DMSO each. […] Add 14.7 μl of ATP buffer to the corresponding wells of the compound and ZPE, respectively. • 2. Add 14.7 μl of AMP buffer to the corresponding wells of the HPE. • 3. Shake the plate at 25 degrees C. for 10 minutes. • 4. […] Immediately add 5 ul of 0.5M EDTA solution to all wells, and then add 65 μl of Buffer B. All reactions are completed. • 6. Transfer […] of liquid from the end of reaction compound plate to the filter plate using the spiking apparatus. • 7. After placing the liquid receiving plate under the filter plate, use a centrifuge to remove the liquid and discard the liquid received in the receiving plate. • 8. Add 90 μl of buffer B to the filter plate and repeat step 7. Repeat steps 7 and 8 to wash the filter plate a total of three times. • 9. Let the filter plate dry overnight. • 10. Add 81 μl of 80% methanol/water solution to the filter plate the next day. • 11. Apply membrane to the filter plate and vibrate the plate for 15 minutes. • 12. Place a new liquid receiver plate under the filter plate and centrifuge for 5 min to filter all the liquid from the filter plate into the receiver plate. • 13. Add 13.5 μl of internal standard solution to each well of the liquid receiver plate and seal the plate with a sealing film. • 14. Using LC/MS/MS, detect the content of taurocholic acid in the receiver plate.

[3] = GPR40 agonist activity range (EC50), CHO-K1/GPR40 cells, read-out: GPR40 activity

T1 sequence (O14842 whole entry): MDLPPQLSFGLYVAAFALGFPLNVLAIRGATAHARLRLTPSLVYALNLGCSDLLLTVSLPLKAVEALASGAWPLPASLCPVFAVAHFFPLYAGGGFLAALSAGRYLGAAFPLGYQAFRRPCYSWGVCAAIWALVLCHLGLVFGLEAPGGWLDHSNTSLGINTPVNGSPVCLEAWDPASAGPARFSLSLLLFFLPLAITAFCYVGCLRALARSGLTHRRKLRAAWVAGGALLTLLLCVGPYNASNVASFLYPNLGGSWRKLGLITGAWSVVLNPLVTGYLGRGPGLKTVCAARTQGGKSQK
BSEP bile salt transporter, sequence (O95342 whole entry): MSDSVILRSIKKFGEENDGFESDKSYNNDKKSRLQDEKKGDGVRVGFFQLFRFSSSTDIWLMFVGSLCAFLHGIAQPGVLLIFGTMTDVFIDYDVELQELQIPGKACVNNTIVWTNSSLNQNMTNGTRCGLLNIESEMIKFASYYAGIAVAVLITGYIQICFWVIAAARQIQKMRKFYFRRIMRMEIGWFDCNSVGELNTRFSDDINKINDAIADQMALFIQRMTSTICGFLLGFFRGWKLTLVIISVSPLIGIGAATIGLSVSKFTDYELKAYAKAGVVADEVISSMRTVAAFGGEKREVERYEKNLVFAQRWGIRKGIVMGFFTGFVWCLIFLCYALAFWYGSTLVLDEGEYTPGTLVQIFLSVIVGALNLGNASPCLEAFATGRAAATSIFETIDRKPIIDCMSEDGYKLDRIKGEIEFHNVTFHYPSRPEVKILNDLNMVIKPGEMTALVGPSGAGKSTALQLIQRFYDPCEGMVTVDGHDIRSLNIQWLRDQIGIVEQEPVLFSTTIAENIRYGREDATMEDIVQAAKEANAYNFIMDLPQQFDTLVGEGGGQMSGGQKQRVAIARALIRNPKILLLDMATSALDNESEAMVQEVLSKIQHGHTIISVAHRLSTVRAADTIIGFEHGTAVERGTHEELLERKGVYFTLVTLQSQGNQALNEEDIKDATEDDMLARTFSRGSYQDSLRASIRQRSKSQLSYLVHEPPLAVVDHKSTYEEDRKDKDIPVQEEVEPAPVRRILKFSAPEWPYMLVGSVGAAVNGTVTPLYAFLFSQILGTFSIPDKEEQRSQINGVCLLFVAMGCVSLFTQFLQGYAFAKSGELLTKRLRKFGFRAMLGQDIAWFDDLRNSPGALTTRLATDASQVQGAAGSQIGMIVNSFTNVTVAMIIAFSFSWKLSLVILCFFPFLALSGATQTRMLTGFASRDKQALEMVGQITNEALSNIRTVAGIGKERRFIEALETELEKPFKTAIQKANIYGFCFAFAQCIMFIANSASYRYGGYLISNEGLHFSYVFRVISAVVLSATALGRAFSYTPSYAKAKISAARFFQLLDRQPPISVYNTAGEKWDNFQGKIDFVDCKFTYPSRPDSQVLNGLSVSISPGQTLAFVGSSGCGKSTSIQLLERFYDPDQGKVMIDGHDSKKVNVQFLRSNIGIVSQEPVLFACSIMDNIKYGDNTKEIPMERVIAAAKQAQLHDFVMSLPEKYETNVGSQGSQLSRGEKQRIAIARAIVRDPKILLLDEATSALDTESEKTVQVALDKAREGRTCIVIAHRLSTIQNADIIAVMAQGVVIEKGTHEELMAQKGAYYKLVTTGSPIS
hERG, sequence (Q12809 whole entry): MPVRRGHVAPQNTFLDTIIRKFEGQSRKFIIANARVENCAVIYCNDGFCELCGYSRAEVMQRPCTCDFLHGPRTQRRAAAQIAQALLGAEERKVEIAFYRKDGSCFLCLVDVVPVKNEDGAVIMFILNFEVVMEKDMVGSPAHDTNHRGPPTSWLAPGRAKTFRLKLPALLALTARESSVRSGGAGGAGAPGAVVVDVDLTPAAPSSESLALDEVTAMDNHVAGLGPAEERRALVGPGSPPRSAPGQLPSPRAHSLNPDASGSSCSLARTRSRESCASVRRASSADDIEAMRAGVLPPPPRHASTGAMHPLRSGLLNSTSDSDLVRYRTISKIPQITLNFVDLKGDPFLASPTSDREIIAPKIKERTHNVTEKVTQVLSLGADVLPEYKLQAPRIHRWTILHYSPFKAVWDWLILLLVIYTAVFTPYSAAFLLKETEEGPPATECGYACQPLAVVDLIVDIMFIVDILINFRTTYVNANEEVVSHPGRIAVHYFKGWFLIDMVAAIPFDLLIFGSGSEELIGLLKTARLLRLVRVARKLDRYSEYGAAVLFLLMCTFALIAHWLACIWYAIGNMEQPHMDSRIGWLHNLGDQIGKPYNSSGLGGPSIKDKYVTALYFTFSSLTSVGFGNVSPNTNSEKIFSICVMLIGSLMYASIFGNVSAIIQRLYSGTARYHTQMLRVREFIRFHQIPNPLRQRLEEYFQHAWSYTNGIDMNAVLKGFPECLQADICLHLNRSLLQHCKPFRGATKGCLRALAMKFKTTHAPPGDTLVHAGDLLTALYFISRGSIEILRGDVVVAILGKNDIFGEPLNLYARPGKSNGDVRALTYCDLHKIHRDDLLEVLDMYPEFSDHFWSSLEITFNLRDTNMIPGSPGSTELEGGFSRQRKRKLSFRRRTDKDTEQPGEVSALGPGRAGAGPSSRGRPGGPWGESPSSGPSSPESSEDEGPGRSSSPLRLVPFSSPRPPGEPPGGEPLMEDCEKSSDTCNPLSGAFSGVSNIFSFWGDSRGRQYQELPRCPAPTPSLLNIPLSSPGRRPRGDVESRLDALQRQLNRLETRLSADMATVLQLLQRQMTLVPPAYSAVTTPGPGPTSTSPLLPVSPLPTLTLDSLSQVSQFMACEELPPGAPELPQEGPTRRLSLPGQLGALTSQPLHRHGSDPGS

Row | SMILES | EC50 (GPR40; [3]) [nM] | other results
1 | O=C(O)C[C@@H]1COc2cc(OCc3cc(Cl)cc4c3OCO4)ccc21 [IIb-25] | < 10 | Ames assay result (Ames assay): no relevant side effects; LD50 at 5 days [1]: > 600 mg/kg; survival rate of the mice after administration (healthy mice): 100%; EC50 (GPR40; Table 4, read-out: GPR40 Activity (hEC50)): 9.2 nM; EC50 (GPR40; read-out: GPR40 activity (EC50)): < 10 nM; IC50 (hERG): > 30000 nM; IC50 ([2]; inhibition of TCA uptake by BSEP vesicles, read-out: Potential inhibitory side effects BSEP (IC50)): 57700 nM; IC50 ([2]; read-out: BSEP): > 25000 nM
2 | Nc1cc(COc2ccc3c(c2)OC[C@H]3CC(=O)O)c2c(c1)OCO2 [IIb-44] | > 100 | 
3 | NC(C(=O)O)C1COc2cc(OCc3cccc4c3OC(F)(F)O4)ccc21 (stereo not drawn) [IIb-31] | > 100 | 
4 | O=C(O)CC1COc2cc(OCc3cc(F)cc4c3OCO4)ccc21 (stereo not drawn) [IIb-06] | 10 to 100 | 
5 | O=C(O)CC1COc2cc(OCc3c(Br)ccc4c3OCCO4)ccc21 (stereo not drawn) [IIb-08] | > 100 | 
6 | O=C(O)CC1COc2cc(OCc3cccc4c3OC(F)(F)O4)c(Br)cc21 (stereo not drawn) [IIb-26] | > 100 | 
7 | O=C(O)CC1CCc2cc(OCc3cccc4c3OC(F)(F)O4)ccc21 (stereo not drawn) [IIb-61] | 10 to 100 | 
8 | CC1(C)Oc2cccc(COc3ccc4c(c3)OCC4CC(=O)O)c2O1 (stereo not drawn) [IIb-20] | 10 to 100 | 
9 | O=C(O)CC1COc2cc(OCc3c(F)ccc4c3OCO4)ccc21 (stereo not drawn) [IIb-13] | > 100 | 
10 | O=C(O)CC1COc2cc(OCc3cc(Cl)cc4c3OCO4)ccc21 (stereo not drawn) [IIb-05] | 10 to 100 | 
11 | O=C(O)CC1COc2cc(OCc3ccc(Cl)c4c3OC(F)(F)O4)ccc21 (stereo not drawn) [IIb-24] | > 100 | 
12 | O=C(O)C[C@@H]1COc2cc(OCc3cc(I)cc4c3OCO4)ccc21 [IIb-40] | 10 to 100 | 
13 | CC#CC(CC(=O)O)c1ccc(OCc2cc(NC(=O)OC(C)(C)C)cc3c2OC(F)(F)O3)cc1 (stereo not drawn) [IIb-64] | 10 to 100 | 
14 | O=C(O)C(O)C1COc2cc(OCc3cccc4c3OC(F)(F)O4)ccc21 (stereo not drawn) [IIb-32] | > 100 | 
15 | O=C(O)C(F)C1COc2cc(OCc3cc(F)cc4c3OCO4)ccc21 (stereo not drawn) [IIb-57] | 10 to 100 | 

Continued, in another order:

Row | EC50 (GPR40; [3]) [nM] | SMILES | other results
16 | 10 to 100 | N#Cc1cc(COc2ccc3c(c2)OCC3CC(=O)O)c2c(c1)OCO2 (stereo not drawn) [IIb-15] | 
17 | > 100 | O=C(O)C(F)(F)C1COc2cc(OCc3cc(Cl)cc4c3OCO4)ccc21 (stereo not drawn) [IIb-39] | 
18 | > 100 | COc1cc(COc2ccc3c(c2)OC[C@H]3CC(=O)O)c2c(c1)OCO2 [IIb-45] | 
19 | 10 to 100 | O=C(O)C[C@@H]1COc2cc(OCc3cc(F)cc4c3OC(F)(F)O4)ccc21 [IIb-55] | 
20 | 10 to 100 | O=C(O)CC1CCc2cc(OCc3cc(F)cc4c3OCO4)ccc21 (stereo not drawn) [IIb-35] | 
21 | > 100 | O=C(O)C(Br)C1COc2cc(OCc3cccc4c3OC(F)(F)O4)ccc21 (stereo not drawn) [IIb-30] | 
22 | 10 to 100 | O=C(O)CC1COc2cc(OCc3ccc4c(c3)OCO4)ccc21 (stereo not drawn) [IIb-04] | 
23 | > 100 | O=C(O)CC1(c2ccc(OCc3cc(F)cc4c3OCO4)cc2)OCCO1 [IIb-37] | 
24 | > 100 | O=C(O)CC1COc2cc(OCc3ccc(Br)c4c3OCO4)ccc21 (stereo not drawn) [IIb-16] | 
25 | > 100 | CC(C)S(=O)(=O)Nc1cc(COc2ccc3c(c2)OC[C@H]3CC(=O)O)c2c(c1)OCO2 [IIb-51] | 
26 | 10 to 100 | O=C(O)C[C@@H]1COc2cc(OCc3cc(Cl)cc4c3OC(F)(F)O4)ccc21 [IIb-56] | 
27 | > 100 | O=C(O)CC1COc2cc(OCc3cc(F)cc4c3OCCO4)ccc21 (stereo not drawn) [IIb-11] | 
28 | > 100 | CN(C)c1cc(COc2ccc3c(c2)OC[C@H]3CC(=O)O)c2c(c1)OCO2 [IIb-41] | 
29 | > 100 | CN(C)c1ccc2c(c1COc1ccc3c(c1)OC[C@H]3CC(=O)O)OCO2 [IIb-42] | 
30 | 10 to 100 | O=C(O)C[C@@H]1COc2cc(OCc3cc(NC(=O)OC4CCCC4)cc4c3OCO4)ccc21 [IIb-48] | 
31 | > 100 | O=C(O)CC1COc2cc(OCc3cccc4c3OC(F)(F)O4)c(Cl)cc21 (stereo not drawn) [IIb-28] | 
